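Following 48 hours of exposure in 96-well plates, responses at five concentrations were used to interpolate endpoints linearly. TGI marks complete inhibition of growth.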
Legend:
Test in all cases: NCI anticancer screen, dose series, 48 h
OVCAR-8 ovarian = test system: OVCAR-8 ovarian
DMS 114 small cell lung = test system: DMS 114 small cell lung
NCI-H460 lung = test system: NCI-H460 lung
HOP-18 NSCLC = test system: HOP-18 NSCLC
LOX IMVI melanoma = test system: LOX IMVI melanoma
IGROV1 ovarian = test system: IGROV1 ovarian
SK-MEL-28 melanoma = test system: SK-MEL-28 melanoma
ACHN renal = test system: ACHN renal
HCT-15 colon = test system: HCT-15 colon
CAKI-1 renal = test system: CAKI-1 renal
SK-MEL-5 melanoma = test system: SK-MEL-5 melanoma
M19-MEL melanoma = test system: M19-MEL melanoma
RXF-631 renal = test system: RXF-631 renal
NCI-H226 lung = test system: NCI-H226 lung
KM20L2 colon = test system: KM20L2 colon
SF-539 CNS = test system: SF-539 CNS
CCRF-CEM leukemia = test system: CCRF-CEM leukemia
SNB-75 CNS = test system: SNB-75 CNS
M14 melanoma = test system: M14 melanoma
A549 NSCLC = test system: A549 NSCLC
OVCAR-4 ovarian = test system: OVCAR-4 ovarian
HCC-2998 colon = test system: HCC-2998 colon
SNB-19 CNS = test system: SNB-19 CNS
EKVX NSCLC = test system: EKVX NSCLC
SF-295 CNS = test system: SF-295 CNS
U251 CNS = test system: U251 CNS
SK-OV-3 ovarian = test system: SK-OV-3 ovarian
UACC-257 melanoma = test system: UACC-257 melanoma
A498 renal = test system: A498 renal
OVCAR-5 ovarian = test system: OVCAR-5 ovarian
UACC-62 melanoma = test system: UACC-62 melanoma
RPMI-8226 leukemia = test system: RPMI-8226 leukemia
DLD-1 colon = test system: DLD-1 colon
OVCAR-3 ovarian = test system: OVCAR-3 ovarian
COLO 205 colon = test system: COLO 205 colon
HCT-116 colon = test system: HCT-116 colon
K-562 leukemia = test system: K-562 leukemia
DMS 273 small cell lung = test system: DMS 273 small cell lung
786-0 renal = test system: 786-0 renal
HT29 colon = test system: HT29 colon
MALME-3M melanoma = test system: MALME-3M melanoma
SF-268 CNS = test system: SF-268 CNS
HOP-62 NSCLC = test system: HOP-62 NSCLC
SN12C renal = test system: SN12C renal
SW-620 colon = test system: SW-620 colon
NCI-H23 lung = test system: NCI-H23 lung
UO-31 renal = test system: UO-31 renal
SNB-78 CNS = test system: SNB-78 CNS
SK-MEL-2 melanoma = test system: SK-MEL-2 melanoma
TK-10 renal = test system: TK-10 renal
LXFL 529 NSCLC = test system: LXFL 529 NSCLC
MOLT-4 leukemia = test system: MOLT-4 leukemia
XF 498 CNS = test system: XF 498 CNS
RXF 393 renal = test system: RXF 393 renal
NCI-H522 lung = test system: NCI-H522 lung
KM12 colon = test system: KM12 colon

Measured: TGI

Cc1ccc(C(O)(c2ccc(C)cc2)c2ccccn2)cc1
not listed: LXFL 529 NSCLC | MOLT-4 leukemia | XF 498 CNS | RXF 393 renal | NCI-H522 lung | KM12 colon
> 100 µM: all other assays above

Cc1ccc(-c2cc(=O)c3cc(C)c(C)c(C(=O)O)c3o2)cc1N
not listed: HCC-2998 colon | A498 renal | DMS 273 small cell lung | HOP-62 NSCLC
> 100 µM: all other assays above
